# ChEMBL document CHEMBL3751734, “Late-stage optimization of a tercyclic class of S1P3-sparing, S1P1 receptor agonists” (Bioorg Med Chem Lett, 2016)
# Key:
# [1] = molecular target: Sphingosine 1-phosphate receptor 1 (Homo sapiens, UniProt P21453); test: Agonist activity at human S1P1 receptor expressed in EDG1-bla U2OS cells incubated for 18 hrs prior to GenBlazer substrate addition by beta-arrestin recruitment assay; format: cell-based
# [2] = Kinetic solubility of the compound in buffer at pH 7.4 after 16 to 19 hrs by UV absorbance assay; format: physicochemical; conditions: read-out: Kinetic_solubility
# [3] = molecular target: Sphingosine 1-phosphate receptor 3 (Homo sapiens, UniProt Q99500); test: Agonist activity at human S1P3 receptor expressed in EDG3-bla U2OS cells incubated for 18 hrs prior to GenBlazer substrate addition by beta-arrestin recruitment assay; format: cell-based
# Homo sapiens = organism: Homo sapiens; test: Selectivity ratio of EC50 for human S1P5 receptor to EC50 for human S1P1 receptor
# [4] = Equilibrium solubility of the compound in citric acid monohydrate/Na2HPO4 dihydrate buffer at pH 6.8 after 24 hrs by RP-HPLC analysis; format: physicochemical
# [5] = molecular target: Sphingosine 1-phosphate receptor 5 (Homo sapiens, UniProt Q9H228); test: Agonist activity at human S1P5 receptor expressed in EDG8-bla U2OS cells incubated for 18 hrs prior to GenBlazer substrate addition by beta-arrestin recruitment assay; format: cell-based
# HepG2 = test: Toxicity in human HepG2 cells assessed as phospholipidosis at 0.1 to 200 uM after 48 hrs by Hoechst […] staining-based lipidTOX assay; format: cell-based; conditions: hepg2, 48 h
# [6] = Ratio of drug level in brain to plasma (unknown origin); format: ADME, cell-free; conditions: read-out: BPR
# Sequence of Sphingosine 1-phosphate receptor 3 (Q99500 whole entry): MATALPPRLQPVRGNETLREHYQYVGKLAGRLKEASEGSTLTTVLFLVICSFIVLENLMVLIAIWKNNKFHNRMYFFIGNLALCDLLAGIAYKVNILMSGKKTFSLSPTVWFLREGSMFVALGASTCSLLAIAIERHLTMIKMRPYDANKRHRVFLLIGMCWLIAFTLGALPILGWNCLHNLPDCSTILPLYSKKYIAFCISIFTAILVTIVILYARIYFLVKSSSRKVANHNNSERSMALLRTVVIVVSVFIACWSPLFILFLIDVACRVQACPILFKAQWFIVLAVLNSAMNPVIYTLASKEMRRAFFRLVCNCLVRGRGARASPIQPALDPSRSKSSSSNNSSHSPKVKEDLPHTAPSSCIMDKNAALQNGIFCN
# Sequence of Sphingosine 1-phosphate receptor 1 (P21453 whole entry): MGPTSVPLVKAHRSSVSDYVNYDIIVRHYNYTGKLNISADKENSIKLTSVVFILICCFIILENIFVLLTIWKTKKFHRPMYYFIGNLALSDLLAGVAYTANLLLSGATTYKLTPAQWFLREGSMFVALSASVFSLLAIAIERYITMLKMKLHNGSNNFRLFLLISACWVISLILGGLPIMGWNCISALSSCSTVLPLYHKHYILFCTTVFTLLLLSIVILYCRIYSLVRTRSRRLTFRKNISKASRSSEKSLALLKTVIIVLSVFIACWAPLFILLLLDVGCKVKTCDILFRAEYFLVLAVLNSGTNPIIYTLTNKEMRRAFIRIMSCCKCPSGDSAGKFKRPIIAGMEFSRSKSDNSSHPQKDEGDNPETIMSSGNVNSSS
# Sequence of Sphingosine 1-phosphate receptor 5 (Q9H228 whole entry): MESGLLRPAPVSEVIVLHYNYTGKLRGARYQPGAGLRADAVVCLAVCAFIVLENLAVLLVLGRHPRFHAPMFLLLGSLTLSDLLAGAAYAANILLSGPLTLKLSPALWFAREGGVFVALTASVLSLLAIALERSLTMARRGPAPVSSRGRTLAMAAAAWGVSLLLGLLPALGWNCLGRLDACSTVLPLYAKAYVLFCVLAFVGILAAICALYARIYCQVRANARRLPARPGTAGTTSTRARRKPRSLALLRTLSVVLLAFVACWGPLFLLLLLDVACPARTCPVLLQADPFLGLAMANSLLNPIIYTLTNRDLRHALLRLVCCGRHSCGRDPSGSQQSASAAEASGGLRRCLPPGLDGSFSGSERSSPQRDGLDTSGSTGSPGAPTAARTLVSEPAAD
EC50 [1],solubility kinetic [2],Structure (SMILES),further results
63 nM,23 µg/mL,Cc1cc(-c2nc(-c3cc(C)c(OC[C@H]4COC(=O)N4)cn3)no2)cc(CC(C)C)n1,–
6 nM,0.1 µg/mL,Cc1cc(-c2nc(-c3cc(F)c(OC[C@H]4OCC[C@@H]4O)cc3Cl)no2)cc(NC(C)C)n1,–
13 nM,< 0.1 µg/mL,CC(C)Oc1ncc(-c2nc(-c3cc(F)c(OC[C@H](N)CO)cc3Cl)no2)cc1Cl,–
7.9 nM,17 µg/mL,Cc1cc(-c2nc(-c3ccc(OC[C@H]4COC(=O)N4)c(C)n3)no2)cc(NC(C)C)n1,–
3.5 nM,0.1 µg/mL,Cc1cc(-c2nc(-c3cc(F)c(O[C@@H]4CNC(=O)C4)cc3Cl)no2)cc(NC(C)C)n1,–
550 nM,0.8 µg/mL,Cc1cc(-c2nnc(-c3cc(F)c(OC[C@H]4CNC(=O)CO4)cc3Cl)s2)cc(NC(C)C)n1,–
310 nM,1 µg/mL,CC(=O)N1CCOC[C@@H]1COc1cc(Cl)c(-c2nnc(-c3cc(C)nc(NC(C)C)c3)s2)cc1F,–
0.8 nM,0.1 µg/mL,Cc1cc(-c2nc(-c3cc(F)c(O[C@H]4COC[C@H]4O)cc3Cl)no2)cc(NC(C)C)n1 (racemic),–
42 nM,> 40 µg/mL,Cc1cc(-c2nc(-c3ccc(O[C@H]4CCC(=O)NC4)c(C)n3)no2)cc(NC(C)C)n1,Ratio EC50 (Homo sapiens): 7; solubility thermodynamic at 24 h [4]: 12 µg/mL; EC50 [3]: > 10000 nM; EC50 [5]: 350 nM
1.9 nM,–,CC(C)Cc1ccc(-c2nc(-c3ccc([C@@H](C)N[C@H]4C[C@@H](C(=O)O)C4)cc3)no2)cc1,EC50 [3]: > 10000 nM
560 nM,0.6 µg/mL,Cc1cc(-c2nnc(-c3cc(F)c(O[C@@H]4CNC(=O)C4)cc3Cl)s2)cc(NC(C)C)n1,–
13 nM,< 0.1 µg/mL,CC(C)Oc1ncc(-c2nnc(-c3cc(F)c(OC[C@H](N)CO)cc3Cl)s2)cc1C#N,–
130 nM,< 0.1 µg/mL,Cc1cc(-c2nnc(-c3cc(F)c(OC[C@H](N)CO)cc3Cl)s2)cc(OC(C)C)n1,–
20 nM,–,Cc1cc(-c2nc(-c3cc(F)c(OC[C@H](N)CO)cc3Cl)no2)cc(CC(C)C)n1,–
200 nM,27 µg/mL,Cc1cc(-c2nc(-c3cnc(OC[C@H]4COC(=O)N4)cn3)no2)cc(CC(C)C)n1,–
2.5 nM,2 µg/mL,Cc1cc(-c2nc(-c3cnc(OC[C@H]4COC(=O)N4)c(C)n3)no2)cc(NC(C)C)n1,–

# The next lines start with the molecule.
Structure (SMILES),EC50 [1],solubility kinetic [2],further results
Cc1cc(-c2nc(-c3cc(F)c(OC[C@H]4CCC(=O)N4)cc3Cl)no2)cc(NC(C)C)n1,0.8 nM,0.1 µg/mL,–
CCCCCCCCc1ccc(CCC(N)(CO)CO)cc1 [FINGOLIMOD],–,–,EC50 [3]: > 10000 nM
CC(C)Oc1ccc(-c2nc(-c3cc(F)c(OC[C@H](N)CO)cc3Cl)no2)cc1Cl,4.1 nM,< 0.1 µg/mL,EC50 [3]: > 10000 nM
Cc1cc(-c2nnc(-c3cc(F)c(OC[C@H]4OCC[C@@H]4O)cc3Cl)s2)cc(NC(C)C)n1,250 nM,0.9 µg/mL,–
Cc1cc(-c2nc(-c3cnc(OC[C@H]4COC(=O)N4)c(C)c3)no2)cc(CC(C)C)n1,1.4 nM,0.9 µg/mL,–
Cc1cc(-c2nc(-c3ccc(OC[C@H]4COC(=O)N4)c(C)n3)no2)cc(CC(C)C)n1,37 nM,> 40 µg/mL,–
CC(C)Oc1ncc(-c2nc(-c3cc(F)c(OC[C@H](N)CO)cc3Cl)no2)cc1C#N,0.5 nM,< 0.1 µg/mL,–
Cc1cc(-c2nc(-c3cc(C)c(OC[C@@H]4CCC(=O)N4)c(C)n3)no2)cc(CC(C)C)n1,11 nM,> 40 µg/mL,Ratio EC50 (Homo sapiens): 7; solubility thermodynamic at 24 h [4]: 21 µg/mL; EC50 [3]: > 10000 nM; EC50 [5]: 340 nM
CC(=O)N1CCOC[C@@H]1COc1cc(Cl)c(-c2noc(-c3cc(C)nc(NC(C)C)c3)n2)cc1F,4.1 nM,0.1 µg/mL,–
Cc1cc(-c2nnc(-c3cc(F)c(OC[C@H](N)CO)cc3Cl)s2)cc(CC(C)C)n1,0.8 nM,25 µg/mL,–
CC(C)Oc1ccc(-c2nnc(-c3cc(F)c(OC[C@H](N)CO)cc3Cl)s2)cc1Cl,32 nM,< 0.1 µg/mL,EC50 [3]: > 10000 nM
Cc1cc(-c2nc(-c3cc(F)c(OC[C@H]4COC(=O)N4)cc3Cl)no2)cc(NC(C)C)n1,0.6 nM,0.1 µg/mL,Activity (HepG2): Non-toxic
Cc1nc(-c2nc(-c3cc(F)c(OC[C@H](N)CO)cc3Cl)no2)ccc1OC(C)C,49 nM,8 µg/mL,–
Cc1cc(-c2nnc(-c3cc(F)c(O[C@H]4CCC(=O)NC4)cc3Cl)s2)cc(NC(C)C)n1,160 nM,0.8 µg/mL,–
Cc1cc(-c2nnc(-c3cc(F)c(OC[C@H](N)CO)cc3Cl)s2)cc(NC(C)C)n1,18 nM,9 µg/mL,–
Cc1cc(-c2nnc(-c3cc(F)c(OC[C@H]4COC(=O)N4)cc3Cl)s2)cc(NC(C)C)n1,86 nM,0.3 µg/mL,–
Cc1cc(-c2nnc(-c3cc(F)c(OC[C@H]4CCC(=O)N4)cc3Cl)s2)cc(NC(C)C)n1,330 nM,0.9 µg/mL,–
Cc1cc(-c2nc(-c3cnc(OC[C@H]4COC(=O)N4)cn3)no2)cc(NC(C)C)n1,150 nM,25 µg/mL,–
CC(C)Oc1ccc(-c2nc(-c3cc(F)c(OC[C@H](N)CO)cc3Cl)no2)cc1C#N,0.1 nM,< 0.1 µg/mL,–

Structure (SMILES),EC50 [1],solubility kinetic [2],further results
CC(C)Oc1ncc(-c2nnc(-c3cc(F)c(OC[C@H](N)CO)cc3Cl)s2)cc1Cl,100 nM,< 0.1 µg/mL,–
Cc1cc(-c2nnc(-c3cc(F)c(O[C@H]4COC[C@H]4O)cc3Cl)s2)cc(NC(C)C)n1 (racemic),147 nM,0.2 µg/mL,–
Cc1cc(-c2nc(-c3cc(F)c(O[C@@H]4CCC(=O)NC4)cc3Cl)no2)cc(NC(C)C)n1,0.8 nM,0.1 µg/mL,–
Cc1nc(-c2nnc(-c3cc(F)c(OC[C@H](N)CO)cc3Cl)s2)ccc1OC(C)C,105 nM,< 0.1 µg/mL,–
Cc1cc(-c2nc(-c3ccc(OC[C@H]4COC(=O)N4)cn3)no2)cc(NC(C)C)n1,120 nM,0.9 µg/mL,–
Cc1nc(CC(C)C)cc(-c2nc(-c3cc(F)c(O[C@@H]4CCC(=O)N(C)C4)cc3Cl)no2)n1,32 nM,26 µg/mL,Ratio EC50 (Homo sapiens): 7; solubility thermodynamic at 24 h [4]: 10 µg/mL; Kp [6]: 0.1; EC50 [3]: > 10000 nM; EC50 [5]: 215 nM
Cc1cc(-c2nc(-c3ccc(OC[C@H]4COC(=O)N4)c(F)c3)no2)cc(NC(C)C)n1,0.5 nM,0.1 µg/mL,–
Cc1cc(-c2nc(-c3ccc(OC[C@H]4COC(=O)N4)nc3)no2)cc(NC(C)C)n1,7.3 nM,0.3 µg/mL,–
CCOc1ncc(-c2nnc(-c3cc(F)c(OC[C@H](N)CO)cc3Cl)s2)cc1Cl,594 nM,< 0.1 µg/mL,–
Cc1cc(-c2nc(-c3cc(F)c(OC[C@H](N)CO)cc3Cl)no2)cc(OC(C)C)n1,67 nM,0.2 µg/mL,–
Cc1cc(-c2nc(-c3cc(C)c(OC[C@H]4COC(=O)N4)cn3)no2)cc(NC(C)C)n1,18 nM,0.2 µg/mL,–
Cc1cc(-c2nc(-c3cc(F)c(OC[C@H]4CNC(=O)CO4)cc3Cl)no2)cc(NC(C)C)n1,14 nM,0.1 µg/mL,–
Cc1cc(-c2nc(-c3cc(F)c(OC[C@H](N)CO)cc3Cl)no2)cc(NC(C)C)n1,4 nM,0.3 µg/mL,–
CCOc1ncc(-c2nc(-c3cc(F)c(OC[C@H](N)CO)cc3Cl)no2)cc1Cl,62 nM,< 0.1 µg/mL,–
Cc1cc(-c2nnc(-c3cc(F)c(O[C@@H]4CCC(=O)NC4)cc3Cl)s2)cc(NC(C)C)n1,300 nM,1 µg/mL,–
Cc1cc(-c2nc(-c3cc(F)c(O[C@H]4CCC(=O)NC4)cc3Cl)no2)cc(NC(C)C)n1,0.2 nM,0.1 µg/mL,–
Cc1cc(-c2nc(-c3ccc(OC[C@H]4COC(=O)N4)cc3)no2)cc(NC(C)C)n1,2.8 nM,0.1 µg/mL,–
Cc1nc(CC(C)C)cc(-c2nc(-c3ccc(O[C@@H]4CCC(=O)NC4)c(F)c3)no2)n1,50 nM,> 40 µg/mL,Ratio EC50 (Homo sapiens): 7; solubility thermodynamic at 24 h [4]: 27 µg/mL; Kp [6]: 0.1; EC50 [3]: > 10000 nM; EC50 [5]: 360 nM
CCCCCCCCCCCCC/C=C/[C@@H](O)[C@@H](N)COP(=O)(O)O,2.8 nM,–,EC50 [3]: 79 nM
